Patent US20250205342A1, “IRAK DEGRADERS AND USES THEREOF” (Kymera Therapeutics, Inc., priority 2022, published 2025)

Legend:
IRAK4 [1] = target: T1, IRAK4 (Homo sapiens, UniProt Q9NWZ3); assay: IRAK4 degradation in OCI-LY10 (MSD, Meso Scale Discovery); assay type: cell-based; parameters: endogenous in cells; host or cells: OCI-LY10; details: OCI-LY10 cells, 24 h
T1 sequence (Q9NWZ3 1-460): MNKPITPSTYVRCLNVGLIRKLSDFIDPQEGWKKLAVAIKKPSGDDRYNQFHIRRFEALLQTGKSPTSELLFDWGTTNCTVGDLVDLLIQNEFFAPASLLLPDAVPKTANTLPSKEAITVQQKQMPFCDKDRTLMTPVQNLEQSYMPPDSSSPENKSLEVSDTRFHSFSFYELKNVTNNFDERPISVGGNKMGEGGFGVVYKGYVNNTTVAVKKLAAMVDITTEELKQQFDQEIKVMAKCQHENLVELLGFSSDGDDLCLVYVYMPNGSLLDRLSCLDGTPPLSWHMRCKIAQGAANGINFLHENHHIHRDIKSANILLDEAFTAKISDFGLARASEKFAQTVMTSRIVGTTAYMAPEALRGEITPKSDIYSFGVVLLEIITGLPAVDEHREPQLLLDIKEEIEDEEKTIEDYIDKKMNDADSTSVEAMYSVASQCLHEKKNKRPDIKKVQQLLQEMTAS
Summary of the method: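 OCI-LY10 cells (300,000/well) were treated with an 8-point 1:3 series (top 1 to 10 μM) for 4 to 24 h at 37 °C. IRAK4 in RIPA lysates was quantified by MSD sandwich immunoassay with two anti-IRAK4 antibodies. DC50 was fitted with a three-parameter logistic equation.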

IRAK4 [2] = target: T1, IRAK4; assay: hPBMC IRAK4 degradation flow assay (monocytes); assay type: cell-based; parameters: endogenous in cells; host or cells: human PBMCs (monocytes, CD14 positive gate); details: CD14 positive monocytes, 20 h, read-out: hPBMC monocyte DC50 at 20 h
Summary of the method: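 Thawed human PBMCs treated 20 h (or 4 h) at 37° C. with 10-point 5-fold compound dilutions, 0.1% DMSO, then fixed, methanol-permeabilized and stained for IRAK4 and lineage markers by flow, with monocytes gated CD14+. IRAK4 MFI normalized to DMSO and 10 µM control; DC50 and max degradation from 4-parameter logistic fit.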

SMILES	DC50 (IRAK4 [1]) [µM]	DC50 (IRAK4 [2]) [µM]
CCOC(=O)Cn1cc(NC(=O)c2cccc(-c3cncc(CCCCCCCCCNC[C@H]4CC[C@H](n5cc(NC(=O)c6cnn7ccc(N8C[C@H]9C[C@@H]8CO9)nc67)c(C(F)F)n5)CC4)c3)c2)ccc1=O [Compound I-89]	1 to 10	1 to 10
CCOC(=O)Cn1cc(NC(=O)c2cccc(-c3cncc(CCCNC[C@H]4CC[C@H](n5cc6cc(NC(=O)c7cccc(C(F)(F)F)n7)c(C(C)(C)O)cc6n5)CC4)c3)c2)ccc1=O [Compound I-90]	> 10	> 10
CCOC(=O)Cn1cc(NC(=O)c2cccc(-c3cncc(CCCNC[C@H]4CC[C@H](n5cc(NC(=O)c6cnn7ccc(N8C[C@H]9C[C@@H]8CO9)nc67)c(C(F)F)n5)CC4)c3)c2)ccc1=O [Compound I-91]	> 10	> 10
O=C(O)Cn1cc(NC(=O)c2cccc(-c3cncc(CCCCCCNC[C@H]4CC[C@H](n5cc(NC(=O)c6cnn7ccc(N8C[C@H]9C[C@@H]8CO9)nc67)c(C(F)F)n5)CC4)c3)c2)ccc1=O [Compound I-92]	> 10	> 10
O=C(O)Cn1cc(NC(=O)c2cc(CCCCCCNC[C@H]3CC[C@H](n4cc(NC(=O)c5cnn6ccc(N7C[C@H]8C[C@@H]7CO8)nc56)c(C(F)F)n4)CC3)cc(-c3cccnc3)c2)ccc1=O [Compound I-93]	> 10	> 10
CC(C)(O)c1cc2nn([C@H]3CC[C@H](CNCCCCCCc4cncc(-c5cccc(C(=O)Nc6ccc(=O)n(CC(=O)O)c6)c5)c4)CC3)cc2cc1NC(=O)c1cccc(C(F)(F)F)n1 [Compound I-94]	1 to 10	> 10
CCOC(=O)Cn1cc(NC(=O)c2cc(CCCCCCNC[C@H]3CC[C@H](n4cc5cc(NC(=O)c6cccc(C(F)(F)F)n6)c(C(C)(C)O)cc5n4)CC3)cc(-c3cccnc3)c2)ccc1=O [Compound I-95]	> 10	> 10
CC(C)(O)c1cc2nn([C@H]3CC[C@H](CNCCCCCCc4cc(C(=O)Nc5ccc(=O)n(CC(=O)O)c5)cc(-c5cccnc5)c4)CC3)cc2cc1NC(=O)c1cccc(C(F)(F)F)n1 [Compound I-96]	> 10	> 10
CCOC(=O)Cn1cc(NC(=O)c2cccc(-c3cncc(CCCCCCNC[C@H]4CC[C@H](n5cc6cc(NC(=O)c7cccc(C(F)(F)F)n7)c(C(C)(C)O)cc6n5)CC4)c3)c2)ccc1=O [Compound I-97]	1 to 10	> 10
CCOC(=O)Cn1cc(NC(=O)c2cc(CCCCCCNC[C@H]3CC[C@H](n4cc(NC(=O)c5cnn6ccc(N7C[C@H]8C[C@@H]7CO8)nc56)c(C(F)F)n4)CC3)cc(-c3cccnc3)c2)ccc1=O [Compound I-98]	> 10	> 10
CCOC(=O)Cn1cc(NC(=O)c2cccc(-c3cncc(CCCCCCNC[C@H]4CC[C@H](n5cc(NC(=O)c6cnn7ccc(N8C[C@H]9C[C@@H]8CO9)nc67)c(C(F)F)n5)CC4)c3)c2)ccc1=O [Compound I-99]	> 10	> 10
